Measurements from PubChem BioAssay AID1963825 (Molecular Pharmacology Branch, DTP, NCI, 2024).

Test: Anticancer human tumor 997537-175-T-J1-PDC patient-derived colon adenocarcinoma cell line growth inhibition [POLQ]
Details: 997537-175-T-J1-PDC complex spheroid viability, combination with POLQ inhibitors; for IC50: curve of first compound; for viability, T/C: stronger effect = lower value
Summary of the method: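 Growth inhibition in 3D: complex spheroids (tumor PDC, HUVEC, MSC) treated with POLQ inhibitor combinations; where Cmax unknown, highest tested concentration 10 microM, except SN-38 at 1 microM.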

[1] = second compound 0.0316 µM, first compound 0.0316 µM
[2] = second compound 0.0316 µM, first compound 0.1 µM
[3] = second compound 0.0316 µM, first compound 0.316 µM
[4] = second compound 0.0316 µM, first compound 1 µM
[5] = second compound 0.0316 µM, first compound 3.16 µM
[6] = second compound 0.0316 µM, first compound 10 µM
[7] = second compound 0.1 µM, first compound 0.0316 µM
[8] = second compound 0.1 µM, first compound 0.1 µM
[9] = second compound 0.1 µM, first compound 0.316 µM
[10] = second compound 0.1 µM, first compound 1 µM
[11] = second compound 0.1 µM, first compound 3.16 µM
[12] = second compound 0.1 µM, first compound 10 µM
[13] = second compound 0.316 µM, first compound 0.0316 µM
[14] = second compound 0.316 µM, first compound 0.1 µM
[15] = second compound 0.316 µM, first compound 0.316 µM
[16] = second compound 0.316 µM, first compound 1 µM
[17] = second compound 0.316 µM, first compound 3.16 µM
[18] = second compound 0.316 µM, first compound 10 µM
[19] = second compound 1 µM, first compound 0.0316 µM
[20] = second compound 1 µM, first compound 0.1 µM
[21] = second compound 1 µM, first compound 0.316 µM
[22] = second compound 1 µM, first compound 1 µM
[23] = second compound 1 µM, first compound 3.16 µM
[24] = second compound 1 µM, first compound 10 µM
[25] = second compound 3.16 µM, first compound 0.0316 µM
[26] = second compound 3.16 µM, first compound 0.1 µM
[27] = second compound 3.16 µM, first compound 0.316 µM
[28] = second compound 3.16 µM, first compound 1 µM
[29] = second compound 3.16 µM, first compound 3.16 µM
[30] = second compound 3.16 µM, first compound 10 µM
[31] = second compound 10 µM, first compound 0.0316 µM
[32] = second compound 10 µM, first compound 0.1 µM
[33] = second compound 10 µM, first compound 0.316 µM
[34] = second compound 10 µM, first compound 1 µM
[35] = second compound 10 µM, first compound 3.16 µM
[36] = second compound 10 µM, first compound 10 µM
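Further: luminescence signal used as a surrogate for viable cells; spheroids exposed to drugs for seven days before readout.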

CNCc1ccc(-c2[nH]c3cc(F)cc4c3c2CCNC4=O)cc1 + COC1C(OC(N)=O)C(O)C(Oc2ccc3c(O)c(NC(=O)c4ccc(O)c(CC=C(C)C)c4)c(=O)oc3c2C)OC1(C)C
IC50 (second compound 0.0316 µM): > 10 µM
IC50 (second compound 0.1 µM): > 10 µM
IC50 (second compound 0.316 µM): > 10 µM
IC50 (second compound 1 µM): > 10 µM
IC50 (second compound 3.16 µM): > 10 µM
IC50 (second compound 10 µM): > 10 µM
viability, T/C [1]: 104%
viability, T/C [2]: 96.7%
viability, T/C [3]: 90.3%
viability, T/C [4]: 97.5%
viability, T/C [5]: 101%
viability, T/C [6]: 104%
viability, T/C [7]: 102%
viability, T/C [8]: 97%
viability, T/C [9]: 80.2%
viability, T/C [10]: 97.9%
viability, T/C [11]: 103%
viability, T/C [12]: 106%
viability, T/C [13]: 100%
viability, T/C [14]: 101%
viability, T/C [15]: 93.6%
viability, T/C [16]: 87%
viability, T/C [17]: 95.5%
viability, T/C [18]: 78.3%
viability, T/C [19]: 94.7%
viability, T/C [20]: 101%
viability, T/C [21]: 101%
viability, T/C [22]: 92.8%
viability, T/C [23]: 99.3%
viability, T/C [24]: 84.1%
viability, T/C [25]: 97.8%
viability, T/C [26]: 98.1%
viability, T/C [27]: 104%
viability, T/C [28]: 101%
viability, T/C [29]: 85.8%
viability, T/C [30]: 86.8%
viability, T/C [31]: 99.5%
viability, T/C [32]: 95.9%
viability, T/C [33]: 105%
viability, T/C [34]: 96.6%
viability, T/C [35]: 97.5%
viability, T/C [36]: 90.3%

CCc1cc2c(N3CCc4c(cc(Cn5ccnc5)cc4-c4cn(C)nc4C(F)(F)F)C3=O)cc(C)nc2c(OC)n1 + COC1C(OC(N)=O)C(O)C(Oc2ccc3c(O)c(NC(=O)c4ccc(O)c(CC=C(C)C)c4)c(=O)oc3c2C)OC1(C)C
IC50 (second compound 0.0316 µM): > 10 µM
IC50 (second compound 0.1 µM): 6.36 µM
IC50 (second compound 0.316 µM): > 10 µM
IC50 (second compound 1 µM): > 10 µM
IC50 (second compound 3.16 µM): > 10 µM
IC50 (second compound 10 µM): > 10 µM
viability, T/C [1]: 95.1%
viability, T/C [2]: 123%
viability, T/C [3]: 88.9%
viability, T/C [4]: 95.2%
viability, T/C [5]: 69.1%
viability, T/C [6]: 55.2%
viability, T/C [7]: 106%
viability, T/C [8]: 93.3%
viability, T/C [9]: 75.1%
viability, T/C [10]: 68.8%
viability, T/C [11]: 70%
viability, T/C [12]: 39.1%
viability, T/C [13]: 110%
viability, T/C [14]: 107%
viability, T/C [15]: 93.5%
viability, T/C [16]: 80.7%
viability, T/C [17]: 76.1%
viability, T/C [18]: 66.7%
viability, T/C [19]: 102%
viability, T/C [20]: 114%
viability, T/C [21]: 86.4%
viability, T/C [22]: 61.1%
viability, T/C [23]: 64.2%
viability, T/C [24]: 60.1%
viability, T/C [25]: 113%
viability, T/C [26]: 104%
viability, T/C [27]: 100%
viability, T/C [28]: 68.6%
viability, T/C [29]: 49.8%
viability, T/C [30]: 65.6%
viability, T/C [31]: 92.1%
viability, T/C [32]: 88.7%
viability, T/C [33]: 74.3%
viability, T/C [34]: 66.9%
viability, T/C [35]: 54.5%
viability, T/C [36]: 59.8%
